Reference: ChEMBL document CHEMBL4732190, “Identification of Potent and Long-Acting Single-Chain Peptide Mimetics of Human Relaxin-2 for Cardiovascular Diseases” (J Med Chem, 2021)
*1 amine or outer side, *2 acyl side, *3 side chain or, on linkers, in order; H or OH if unused. Where a SMILES comes first, the peptide text is derived from it. [ ]: non-standard residue; d: D form. β2hAla(2S) = C[C@@H](CN[*:1])C(=O)[*:2]; X4 = CCCC[C@H](O[*:1])C(=O)[*:2]; hLys = NCCCCC[C@H](N)C(=O)O

Tests used:
[1] = molecular target: T1, Relaxin receptor 1 (Homo sapiens, UniProt Q9HBX9); test: Agonist activity at RXFP1 endogenously expressed in human OVCAR-5 cells assessed as increase in IBMX-induced cAMP accumulation pretreated with IBMX for 40 mins followed by compound addition and measured after 30 mins by HTRF assay; format: functional, cell-based
T1 sequence (Q9HBX9 whole entry): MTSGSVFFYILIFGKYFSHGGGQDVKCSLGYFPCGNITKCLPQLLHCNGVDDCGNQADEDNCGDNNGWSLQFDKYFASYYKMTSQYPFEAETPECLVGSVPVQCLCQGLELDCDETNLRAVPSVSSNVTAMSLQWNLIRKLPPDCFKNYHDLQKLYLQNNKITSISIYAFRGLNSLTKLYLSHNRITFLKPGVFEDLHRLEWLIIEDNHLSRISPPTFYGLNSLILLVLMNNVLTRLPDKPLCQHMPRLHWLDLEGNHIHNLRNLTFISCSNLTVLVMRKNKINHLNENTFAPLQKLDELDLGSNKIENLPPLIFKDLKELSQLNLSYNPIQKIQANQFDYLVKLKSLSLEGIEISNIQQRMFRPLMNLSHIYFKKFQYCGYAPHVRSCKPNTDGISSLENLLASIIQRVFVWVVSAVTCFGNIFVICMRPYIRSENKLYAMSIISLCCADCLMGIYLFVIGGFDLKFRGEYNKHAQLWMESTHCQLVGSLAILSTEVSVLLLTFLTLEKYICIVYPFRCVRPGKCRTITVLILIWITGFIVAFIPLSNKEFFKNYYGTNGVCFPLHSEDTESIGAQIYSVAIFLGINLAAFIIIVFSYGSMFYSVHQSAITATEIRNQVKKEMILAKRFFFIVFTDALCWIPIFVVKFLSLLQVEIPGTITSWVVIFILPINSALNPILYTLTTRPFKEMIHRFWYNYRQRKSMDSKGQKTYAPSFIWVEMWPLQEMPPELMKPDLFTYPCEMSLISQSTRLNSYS

[2] = molecular target: T2, Relaxin receptor 1 (Homo sapiens) (UniProt Q9HBX9); test: Agonist activity at RXFP1 endogenously expressed in human OVCAR-5 cells assessed as increase in IBMX-induced cAMP accumulation pretreated with IBMX for 40 mins followed by compound addition and measured after 30 mins by HTRF assay relative to relaxin; format: functional, cell-based; conditions: filed as agonist
T2 sequence (whole entry): T1 sequence (Q9HBX9 whole entry)

An EC50 [1] of 393 nM and an Emax [2] of 102% were found for `CC[C@H](C)[C@H](NC(=O)[C@H](CCC(N)=O)NC(=O)[C@H](C)NC(=O)[C@H](CCCNC(=N)N)NC(=O)[C@@H](NC(=O)[C@H](CC(C)C)NC(=O)[C@H](CCC(=O)O)NC(=O)[C@H](CCCNC(=N)N)NC(=O)CNC(=O)[C@H](CO)NC(=O)[C@H](CC(C)C)NC(=O)[C@H](CCCCN)NC(=O)[C@@H](NC(=O)[C@@H](NC(C)=O)C(C)C)[C@@H](C)CC)C(C)C)C(=O)N[C@@H](C)C(=O)NC[C@H](C)C(=O)N[C@@H](CO)C(=O)NCC(=O)N[C@@H](CCSC)C(=O)N[C@@H](CO)C(=O)N[C@H](C(=O)N[C@@H](Cc1c[nH]c2ccccc12)C(=O)N[C@@H](CO)C(=O)N[C@@H](CCCCN)C(=O)N[C@@H](CCCNC(=N)N)C(=O)N[C@@H](CCCCN)C(=O)N[C@@H](CCCCN)C(N)=O)[C@@H](C)O` (HELM PEPTIDE1{[ac].V.I.K.L.S.G.R.E.L.V.R.A.Q.I.A.[C[C@@H](CN[*:1])C(=O)[*:2]].S.G.M.S.T.W.S.K.R.K.K.[am]}$$$$V2.0) in this work.
An EC50 [1] of 32 nM and an Emax [2] of 95% were found for `CC[C@H](C)[C@H](NC(=O)[C@H](CCC(N)=O)NC(=O)[C@H](C)NC(=O)[C@H](CCCNC(=N)N)NC(=O)[C@@H](NC(=O)[C@H](CC(C)C)NC(=O)[C@H](CCC(=O)O)NC(=O)[C@H](CCCNC(=N)N)NC(=O)CNC(=O)[C@H](CO)NC(=O)[C@H](CC(C)C)NC(=O)[C@H](CCCCN)NC(=O)[C@@H](NC(=O)[C@@H](NC(=O)[C@H](CCC(=O)O)NC(=O)[C@H](CCC(=O)O)NC(C)=O)C(C)C)[C@@H](C)CC)C(C)C)C(=O)N[C@@H](C)C(=O)NC[C@H](C)C(=O)N[C@@H](CO)C(=O)NCC(=O)N[C@@H](CCSC)C(=O)N[C@@H](CO)C(=O)N[C@H](C(=O)N[C@@H](Cc1c[nH]c2ccccc12)C(=O)N[C@@H](CO)C(=O)N[C@@H](CCCCN)C(=O)N[C@@H](CCCNC(=N)N)C(=O)N[C@@H](CCCCN)C(=O)N[C@@H](CCCCN)C(=O)O)[C@@H](C)O` (HELM PEPTIDE1{[ac].E.E.V.I.K.L.S.G.R.E.L.V.R.A.Q.I.A.[C[C@@H](CN[*:1])C(=O)[*:2]].S.G.M.S.T.W.S.K.R.K.K}$$$$V2.0) in this work.
An EC50 [1] of 32 nM and an Emax [2] of 96% were found for `CCCC[C@H](OC(=O)CNC(=O)[C@H](CCC(=O)O)NC(=O)[C@@H](C)CNC(=O)[C@@H](NC(=O)[C@H](CCC(N)=O)NC(=O)[C@H](C)NC(=O)[C@H](CCCNC(=N)N)NC(=O)[C@@H](NC(=O)[C@H](CCCCN)NC(=O)[C@H](CCC(=O)O)NC(=O)[C@H](CCCNC(=N)N)NC(=O)CNC(=O)[C@H](CCC(=O)O)NC(=O)[C@H](CC(C)C)NC(C)=O)C(C)C)[C@@H](C)CC)C(=O)N[C@@H](CO)C(=O)N[C@H](C(=O)N[C@@H](Cc1c[nH]c2ccccc12)C(=O)N[C@@H](CO)C(=O)NC[C@H](C)C(=O)N[C@@H](CCCNC(=N)N)C(=O)N[C@@H](CCCCN)C(=O)N[C@@H](CCCCN)C(=O)N[C@@H](CCCCCNC(C)=O)C(N)=O)[C@@H](C)O` (Ac-LEGREKVRAQI[β2hAla(2S)]EG[X4]STWS[β2hAla(2S)]RKK[hLys](Ac)-NH2) in this work.
An EC50 [1] of 498 nM and an Emax [2] of 86% were found for `CC[C@H](C)[C@H](NC(=O)[C@H](CCC(N)=O)NC(=O)[C@H](C)NC(=O)[C@H](CCCNC(=N)N)NC(=O)[C@@H](NC(=O)[C@H](CC(C)C)NC(=O)[C@H](CCC(=O)O)NC(=O)[C@H](CCCNC(=N)N)NC(=O)CNC(=O)[C@H](CO)NC(=O)[C@H](CC(C)C)NC(=O)[C@H](CCCCN)NC(=O)[C@@H](NC(=O)[C@@H](NC(=O)[C@H](CCC(=O)O)NC(=O)[C@H](CCC(=O)O)NC(C)=O)C(C)C)[C@@H](C)CC)C(C)C)C(=O)NC[C@H](C)C(=O)N[C@H](C(=O)N[C@@H](CO)C(=O)NCC(=O)N[C@@H](CCSC)C(=O)N[C@@H](CO)C(=O)N[C@H](C(=O)N[C@@H](Cc1c[nH]c2ccccc12)C(=O)N[C@@H](CO)C(=O)N[C@@H](CCCCN)C(=O)N[C@@H](CCCNC(=N)N)C(=O)N[C@@H](CO)C(=O)N[C@@H](CC(C)C)C(N)=O)[C@@H](C)O)[C@@H](C)CC` (HELM PEPTIDE1{[ac].E.E.V.I.K.L.S.G.R.E.L.V.R.A.Q.I.[C[C@@H](CN[*:1])C(=O)[*:2]].I.S.G.M.S.T.W.S.K.R.S.L.[am]}$$$$V2.0) in this work.
An EC50 [1] of 46 nM and an Emax [2] of 98% were found for `CC[C@H](C)[C@H](NC(=O)[C@H](CCC(N)=O)NC(=O)[C@H](C)NC(=O)[C@H](CCCNC(=N)N)NC(=O)[C@@H](NC(=O)[C@H](CC(C)C)NC(=O)[C@H](CCC(=O)O)NC(=O)[C@H](CCCNC(=N)N)NC(=O)CNC(=O)[C@H](CO)NC(=O)[C@H](CC(C)C)NC(=O)[C@H](CCCCN)NC(=O)[C@@H](NC(=O)[C@@H](NC(C)=O)C(C)C)[C@@H](C)CC)C(C)C)C(=O)NC[C@H](C)C(=O)N[C@H](C(=O)N[C@@H](CCC(=O)O)C(=O)NCC(=O)N[C@@H](CCSC)C(=O)N[C@@H](CO)C(=O)N[C@@H](CCCCN)C(=O)N[C@@H](Cc1c[nH]c2ccccc12)C(=O)N[C@@H](CO)C(=O)N[C@@H](CCCCN)C(=O)N[C@@H](CCCNC(=N)N)C(=O)N[C@@H](CCCCN)C(=O)N[C@@H](CCCCN)C(N)=O)[C@@H](C)CC` (HELM PEPTIDE1{[ac].V.I.K.L.S.G.R.E.L.V.R.A.Q.I.[C[C@@H](CN[*:1])C(=O)[*:2]].I.E.G.M.S.K.W.S.K.R.K.K.[am]}$$$$V2.0) in this work.
An EC50 [1] of 143 nM and an Emax [2] of 94% were found for `CC[C@H](C)[C@H](NC(=O)[C@H](CCC(N)=O)NC(=O)[C@H](C)NC(=O)[C@H](CCCNC(=N)N)NC(=O)[C@@H](NC(=O)[C@H](CC(C)C)NC(=O)[C@H](CCC(=O)O)NC(=O)[C@H](CCCNC(=N)N)NC(=O)CNC(=O)[C@H](CO)NC(=O)[C@H](CC(C)C)NC(=O)[C@H](CCCCN)NC(=O)[C@@H](NC(=O)[C@@H](NC(=O)[C@H](CCC(=O)O)NC(=O)[C@H](CCC(=O)O)NC(C)=O)C(C)C)[C@@H](C)CC)C(C)C)C(=O)NC[C@H](C)C(=O)N[C@H](C(=O)N[C@@H](CO)C(=O)NCC(=O)N[C@@H](CCSC)C(=O)N[C@@H](CO)C(=O)N[C@H](C(=O)N[C@@H](Cc1c[nH]c2ccccc12)C(=O)N[C@@H](CO)C(=O)N[C@@H](CCCCN)C(=O)N[C@@H](CCCNC(=N)N)C(=O)N[C@@H](CCCCN)C(=O)N[C@@H](CCCCN)C(N)=O)[C@@H](C)O)[C@@H](C)CC` (HELM PEPTIDE1{[ac].E.E.V.I.K.L.S.G.R.E.L.V.R.A.Q.I.[C[C@@H](CN[*:1])C(=O)[*:2]].I.S.G.M.S.T.W.S.K.R.K.K.[am]}$$$$V2.0) in this work.
An EC50 [1] of 19.5 nM and an Emax [2] of 99% were found for `CC[C@H](C)[C@H](NC(=O)[C@H](CCC(N)=O)NC(=O)[C@H](C)NC(=O)[C@H](CCCNC(=N)N)NC(=O)[C@@H](NC(=O)[C@H](CCCCN)NC(=O)[C@H](CCC(=O)O)NC(=O)[C@H](CCCNC(=N)N)NC(=O)CNC(=O)[C@H](CCC(=O)O)NC(=O)[C@H](CC(C)C)NC(=O)[C@H](CCCCN)NC(=O)[C@@H](NC(=O)[C@@H](NC(C)=O)C(C)C)[C@@H](C)CC)C(C)C)C(=O)NC[C@H](C)C(=O)NC[C@H](C)C(=O)N[C@@H](CCC(=O)O)C(=O)NCC(=O)N[C@@H](CCSC)C(=O)N[C@@H](CO)C(=O)N[C@@H](CCCCN)C(=O)N[C@@H](Cc1c[nH]c2ccccc12)C(=O)N[C@@H](CO)C(=O)NC[C@H](C)C(=O)N[C@@H](CCCNC(=N)N)C(=O)N[C@@H](CCCCN)C(=O)N[C@@H](CCCCN)C(N)=O` (Ac-VIKLEGREKVRAQI[β2hAla(2S)][β2hAla(2S)]EGMSKWS[β2hAla(2S)]RKK-NH2) in this work.
An EC50 [1] of 522 nM and an Emax [2] of 89% were found for Ac-VIKLSGRELVRAQIAISGMSTWSKRKK-NH2 in this work.
